Laboratory results: US9388124B2, “Ingenol-3-acylates I” (LEO LABORATORIES LIMITED, priority 2010, dated 2016)

Tests used:
Assay type in all cases: cell-based
[1] = test system: HeLa cells; assay: Necrosis assay; conditions: Homo sapiens, HeLa, 0.5 h, read-out: HeLa Necrosis EC50 range
Description: HeLa cells (ATCC CCL-002) were grown in minimal essential medium (Invitrogen catalog no. 42360) containing 10% fetal bovine serum, 100 IU/ml penicillin and 100 μg/ml streptomycin. 4,000-6,000 cells were seeded into 96-well black ViewPlates-plates, clear bottom, (Perkin Elmer) in 100 μl medium and incubated overnight. Compounds were dissolved and pre-diluted in DMSO in 96-well polypropylene plates (Greiner) in a concentration range of 15 μM to 600 μM. At the time of the experiment cell plates were placed on heating blocks at 37° C., medium was removed and 40 μl fresh, pre-warmed medium was added per well. Cells were incubated for 15 min before addition of compounds. In parallel, 3 μl of compounds were diluted with 197 μl growth medium on a Tecan freedom-EVO pipetting station using 250 μl/s pipetting speed, in order to ensure effective mixing of the highly concentrated compound solutions with the aqueous phase. These pre-dilution plates were then equilibrated on heating blocks at 37° C. for 10 min. 80 μl pre-diluted compound were transferred manually to the corresponding wells containing HeLa cells yielding compound concentrations of 10 μM to 400 μM. Control conditions were 1% DMSO in growth medium (100% viability) and 400 μM ingenol mebutate in growth medium (0% viability). Plates were incubated on the heating blocks at 37° C. for 30 min. At the end of the incubation 10 μl PrestoBlue reagent (Invitrogen) were added to each well, plates were sealed with black seal, followed by incubation at 37° C. for 10 min with gentle shaking (150 rpm). Subsequently, plates were placed at room temperature for 20-30 min. Plates were read immediately after on an Envision Fluorescence reader (Perkin Elmer) with excitation at 535 nm and emission at 630 nm. Test compound titration curves were fitted to a four-parameter sigmoidal curve after normalizing the effect of the test compound to the effect of the positive control (4 10^−4 M PEP0005/ingenol mebutate). AbsEC50 denotes the concentration of test compound producing 50% effect.

[2] = test system: Primary human epidermal keratinocytes, HeKa; assay: HeKa cytokine release (IL-8) assay; conditions: HEKa, 6 h, read-out: HeKa cytokine release (IL-8) Rel EC50 range
Description: HeKa Cytokine Release (IL-8) Assay:
Primary human epidermal keratinocytes, HeKa, were seeded (10.000 cells/well) in 96-well plates the day before the assay. Test compounds were diluted in DMSO (dimethyl sulfoxide) and further diluted in assay medium and pipetted into wells of 96 well-plates containing HeKa cells. The plates were incubated for 6 h at 37° C. in humidified air with 5% CO2. Plates were centrifuged briefly to spin down cells at 4° C., the supernatant was removed and analysed by Meso Scale Discovery (MSD) 4-spot cytokine assay (Pro-inflammatory II Ultra Sensitive kit, MSD, MD, USA). The MSD assay employs a sandwich immunoassay format where capture antibodies are coated in a patterned array on the bottom of the wells of a 4-Spot-Multi-MSD plate. Standard samples were incubated in the MULTI-SPOT plates as well, and the cytokine (IL-8) binds to its corresponding capture antibody spot. The cytokine level was quantitated on a SECTOR™ Imager using a cytokine-specific Detection Antibody labelled with MSD SULFO-TAG™ reagent.
(§1) Test compound titration curves were fitted to a four-parameter sigmoidal curve after normalizing the effect of the test compound to the effect of the positive control (1.5×10^−7 M PEP0005). Rel EC50 denotes the concentration of test compound producing an effect that is midway between the fitted top and bottom.

[3] = test system: PMN's (polymorphonuclear leukocytes); assay: Neutrophil oxidative burst assay; conditions: Leukocyte, 40 min, read-out: Neutrophil oxidative burst Rel EC50 range
Description: Neutrophil Oxidative Burst Assay:
PMN's (polymorphonuclear leukocytes) were isolated and purified from fresh buffy coats by sequential sedimentation, density centrifugation and lysis of contaminating erythrocytes. Buffy coats were incubated with 2% methocel for 30-45 min to differentially sediment red blood cells. The leukocyte-rich supernatant was transferred to lymphoprep tubes to remove mononuclear cells by density centrifugation (400×g, 30 min). The pellet was resuspended and any remaining erythrocytes lysed using 0.2% NaCl for 30 sec before restoring isotonicity by the addition of 1.2% NaCl. This step was repeated until the cell pellet appears relatively free of red blood cells. Cells were resuspended in DPBS (Dulbecco's Phosphate Buffered Saline) (w.o. Ca^2+, Mg^2+) and the concentration adjusted to 1.4×10^6 cells/ml in HBSS (Hanks Balanced Salt solution) (w Ca^2+, Mg^2+) containing 0.1% BSA (Bovine Serum Albumin) and 5 mM glucose just prior to assay initiation. Titrated reference and test compounds were pre-mixed with HE (Hydroethidine) (10 μM final assay concentration) before addition to 96-well plates containing 2.5×10^5 cells. Following 40 min incubation at RT, changes in the respiratory burst was estimated by measuring fluorescence at 579 nm (excitation: 485 nm) using an Envision plate reader.
as §1, with “(5×10^−7” for “(1.5×10^−7”, “bottom. Abs EC50 is the concentration of test compound that provokes a response corresponding to 50% of the maximal effect associated with the positive control (5×10^−7 M PEP0005).” for “bottom.”

| SMILES | EC50 [1] [nM] | EC50 [2] [nM] | EC50 [3] [nM] |
| --- | --- | --- | --- |
| CO/N=C(\C(=O)O[C@H]1C(C)=C[C@]23C(=O)[C@@H](C=C(CO)[C@@H](O)[C@]12O)[C@H]1[C@@H](C[C@H]3C)C1(C)C)c1ccccc1 [Compound 115, Ingenol 3-((2Z)-2-methoxyimino-2-phenyl-acetate)] | < 150000 | < 20 | 20 to 100 |
| COC(=O)/C=C/C(=O)O[C@H]1C(C)=C[C@]23C(=O)[C@@H](C=C(CO)[C@@H](O)[C@]12O)[C@H]1[C@@H](C[C@H]3C)C1(C)C [Compound 113, Ingenol 3-(2Z-(methoxycarbonyl))-acrylate] |  |  | > 100 |
| CC1=C[C@]23C(=O)[C@@H](C=C(CO)[C@@H](O)[C@]2(O)[C@H]1OC(=O)C(=O)N(C)c1ccccc1)[C@H]1[C@@H](C[C@H]3C)C1(C)C [Compound 121, Ingenol 3-(2-(methyl(phenyl)amino)-2-oxo-acetate)] | < 350000 | > 100 | 20 to 100 |
| C/C=C(/C(=O)O[C@H]1C(C)=C[C@]23C(=O)[C@@H](C=C(CO)[C@@H](O)[C@]12O)[C@H]1[C@@H](C[C@H]3C)C1(C)C)c1ccccc1 [Compound 118, Ingenol 3-((E)-2-phenylbut-2-enoate)] | < 150000 | < 20 | < 20 |
| CCC(CC)C(=O)O[C@H]1C(C)=C[C@]23C(=O)[C@@H](C=C(CO)[C@@H](O)[C@]12O)[C@H]1[C@@H](C[C@H]3C)C1(C)C [Compound 109, Ingenol 3-(2-ethyl-butanoate)] | 150000 to 350000 | < 20 | < 20 |
| C=C(C)C(=O)O[C@H]1C(C)=C[C@]23C(=O)[C@@H](C=C(CO)[C@@H](O)[C@]12O)[C@H]1[C@@H](C[C@H]3C)C1(C)C [Compound 101, Ingenol 3-(2-methyl-acrylate)] | 150000 to 350000 | > 100 | < 20 |
| CC1=C[C@]23C(=O)[C@@H](C=C(CO)[C@@H](O)[C@]2(O)[C@H]1OC(=O)C(C#N)=C1CCCCC1)[C@H]1[C@@H](C[C@H]3C)C1(C)C [Compound 120, Ingenol 3-(2-cyano-2-cyclohexylidene-acetate)] |  | > 100 | < 20 |
| CC1=C[C@]23C(=O)[C@@H](C=C(CO)[C@@H](O)[C@]2(O)[C@H]1OC(=O)/C(C)=C\c1ccc(C)cc1)[C@H]1[C@@H](C[C@H]3C)C1(C)C [Compound 117, Ingenol 3-((Z)-2-methyl-3-(p-tolyl)prop-2-enoate)] | < 150000 | < 20 | < 20 |
| CO/N=C(/C(=O)O[C@H]1C(C)=C[C@]23C(=O)[C@@H](C=C(CO)[C@@H](O)[C@]12O)[C@H]1[C@@H](C[C@H]3C)C1(C)C)c1ccccc1 [Compound 116, Ingenol 3-((2E)-2-methoxyimino-2-phenyl-acetate)] |  | 20 to 100 | 20 to 100 |
| CC1=C[C@]23C(=O)[C@@H](C=C(CO)[C@@H](O)[C@]2(O)[C@H]1OC(=O)C(C)C)[C@H]1[C@@H](C[C@H]3C)C1(C)C [Compound 105, Ingenol 3-(2-methyl-propanoate)] |  | 20 to 100 | < 20 |
| CCC(C)C(=O)O[C@H]1C(C)=C[C@]23C(=O)[C@@H](C=C(CO)[C@@H](O)[C@]12O)[C@H]1[C@@H](C[C@H]3C)C1(C)C (stereo partly shown) [Compound 107a and Compound 107b, Ingenol 3-(RS-2-methyl-butanoate)] |  | 20 to 100 | < 20 |
| CC[C@@H](C)C(=O)O[C@H]1C(C)=C[C@]23C(=O)[C@@H](C=C(CO)[C@@H](O)[C@]12O)[C@H]1[C@@H](C[C@H]3C)C1(C)C [Compound 110, Ingenol 3-(2R-methyl-butanoate)] |  | 20 to 100 | < 20 |
| CC1=C[C@]23C(=O)[C@@H](C=C(CO)[C@@H](O)[C@]2(O)[C@H]1OC(=O)CC(C)C)[C@H]1[C@@H](C[C@H]3C)C1(C)C [Compound 106, Ingenol 3-(3-methyl-butanoate)] |  | 20 to 100 | < 20 |
